Data as given in patent US20250000987A1, “RETINOIC ACID COMPOUND, PHARMACEUTICAL COMPOSITION THEREOF AND USE THEREOF” (Mastery Biotech CO., LTD., priority 2022, published 2025).

Assays:
SARS-COV-2 PLpro = SARS-COV-2 PLpro (Severe acute respiratory syndrome coronavirus 2, UniProt P0DTD1); format: biochemical
SARS-COV-2 = details: Example 2; 0.35 mg/kg intranasally twice daily, 3-day treatment; versus isotretinoin and liposome-encapsulated isotretinoin; FIG. 3
From the text: Golden Syrian hamsters (aged 5-6 weeks old and having an average weight of about 100 g) were obtained from the National Laboratory Animal Center (Taipei, Taiwan). The hamsters were housed in an animal room under specific-pathogen-free (SPF) conditions commonly applied in the art. Furthermore, water and feed were provided ad libitum for all the hamsters.
The hamsters were infected with SARS-COV-2 (obtained from P3 Lab, the Genomics Research Center, Academia Sinica; WuHan wild type) in phosphate buffered saline (PBS) through intranasal inoculation at 1×10^4 plaque-forming units (PFU) on 12:00 PM so as to establish a SARS-COV-2 animal model.
The infected hamsters obtained as mentioned above were divided into the following four groups (n=5 per group): a control group (abbreviated as “Control”), two comparative groups (respectively abbreviated as “Comparative_1” and “Comparative_2”) and one experimental group (abbreviated as “Experimental_1”). […]
After the 3-day treatment, the hamsters were sacrificed, and the lungs thereof were collected for live viral load measurement by TCID50 assay in Vero E6 cells. The virus titer was determined in terms of the 50% tissue culture infectious dose (TCID50) using the Reed-Muench method. […]
The experimental data were analyzed by Tukey's test so as to evaluate the differences between the groups. […]

Question: What does the source list for CC1=C(/C=C/C(C)=C/C=C/C(C)=C\C(=O)NCCCO[C@@H]2O[C@H](CO)[C@H](O)[C@H](O)[C@H]2O)C(C)(C)CCC1 [Galactose-modified isotretinoin, (2Z,4E,6E,8E)-3,7-dimethyl-N-(3-(((2R,3R,4S,5R,6R)-3,4,5-trihydroxy-6-(hydroxymethyl)tetrahydro-2H-pyran-2-yl)oxy)propyl)-9-(2,6,6-trimethylcyclohex-1-en-1-yl) nona-2,4,6,8-tetraenamide]?
Answer: Inhibition percentage (%) (SARS-COV-2 PLpro; Example 1, 50 μM inhibiting agent, PLpro 0.9 μM, preincubation 30 minutes, 30° C., 300 seconds, mean±standard deviation): 34.21 ± 0.17%; inhibiting the enzymatic activity of PLpro, comparison in words (SARS-COV-2 PLpro; versus isotretinoin or the individual components, FIG. 2, FIG. 11): more effective than isotretinoin only; TCID50 (lung virus titer) (SARS-COV-2): significantly lower
